From patent US12534699B2, “Method for promoting growth of bacteria of genus Bifidobacterium” (KABUSHIKI KAISHA YAKULT HONSHA, priority 2019, dated 2026)

Assays:
[1] = system: Bifidobacterium breve YIT 12272 (BbY); experiment: Culture of BbY in whey culture medium with L-cystine or L-cysteine; format: cell-based; conditions: for concentration at which the viable cell count was maximum: whey simultaneous heating culture medium, 12 hours
Experimental: A skimmed milk powder was dissolved in RO water at 12% (w/v), and the 12% (w/v) skimmed milk was adjusted to a pH of 4.6 with 5 N HCl, followed by centrifugation at 3,000×g for 5 minutes. Subsequently, the supernatant was adjusted to a pH of 6.5 with 5 N NaOH and was centrifuged at 10,000×g for 15 to 30 minutes. The supernatant was dispensed in 10 mL aliquots in a rimmed medium-sized test tube while replacing the headspace with nitrogen gas and sealed with a butyl rubber stopper. Subsequently, the supernatant was sterilized by heat in an autoclave at 115° C. for 30 minutes to provide a whey culture medium separated before heating. In addition, as in the skimmed milk culture medium, simultaneous heating culture medium was prepared in anaerobic conditions by adding L-cystine or L-cysteine before heating and then performing heat sterilization. The addition concentration of L-cystine or L-cysteine was adjusted to 0.001, 0.003, 0.005, 0.01, 0.03, 0.05, or 0.1% (w/v) as the final concentration.
Inoculation and culture were performed as in Example 1 except that only when BbY was cultured in the skimmed milk culture medium, the culture time was 9 hours.
As in Example 2, whey separated before heating and simultaneous heating culture media with L-cysteine was prepared. In addition, a culture medium in which L-cysteine was added after heat sterilization and immediately before inoculation (individual heating culture medium) was also prepared. The addition concentration of L-cysteine was 0.03 (w/v) % as the final concentration.
A skimmed milk powder was dissolved in RO water at 12% (w/v), and the 12% (w/v) skimmed milk was sterilized by heat in an autoclave at 115° C. for 30 minutes in anaerobic conditions by nitrogen gas and was then adjusted to a pH of 4.6 with 5 N HCl, followed by centrifugation at 3,000×g for 5 minutes. Subsequently, the supernatant was adjusted to a pH of 6.5 with 5 N NaOH and was centrifuged at 10,000×g for 15 to 30 minutes. The supernatant was dispensed in 10 mL aliquots in a pre-sterilized rimmed medium-sized test tube while replacing the headspace with nitrogen gas and sealed with a butyl rubber stopper to provide a whey culture medium separated after heating. In addition, as in the skimmed milk culture media of Example 1, in anaerobic conditions, a culture medium in which L-cysteine was added before heating and then heat sterilization was performed (simultaneous heating culture medium) and a culture medium in which addition was performed after heat sterilization and before adjustment to pH 4.6 (individual heating culture medium) were also prepared.
Inoculation and culture were performed as in Example 1.
Based on the viable cell counts in (iii), each viable cell count ratio was calculated by dividing the viable cell count in the simultaneous heating culture medium by the viable cell count in the individual heating culture medium.

[2] = system: Bifidobacterium bifidum YIT 10347 (BF-1); experiment: Culture of BF-1 in skimmed milk culture medium with L-cystine or L-cysteine; format: cell-based; conditions: for viable cell count and acidity versus culture medium not containing L-cystine and L-cysteine: BF-1, simultaneous heating culture medium (skimmed milk or whey), 0.001 to 0.1% (w/v), FIGS. 5 and 6; for concentration at which the viable cell count was maximum: BF-1, skimmed milk simultaneous heating culture medium, 12 hours
Experimental: Bifidobacterium breve YIT 12272 (hereinafter, referred to as BbY), Bifidobacterium bifidum YIT 10347 (hereinafter, referred to as BF-1), Lactobacillus casei YIT 9029 (hereinafter, referred to as YIT 9029), and Lactobacillus acidophilus YIT 0198 (hereinafter, referred to as YIT 0198) were used.
A skimmed milk powder (ABC, manufactured by MEGMILK SNOW BRAND Co., Ltd.) was dissolved in RO water at 12% (w/v), the solution was dispensed in 10 mL aliquots in a rimmed medium-sized test tube while replacing the headspace with nitrogen gas and sealed with a butyl rubber stopper. Subsequently, the solution was sterilized by heat in an autoclave (SX-500, manufactured by Tomy Seiko Co., Ltd.) at 115° C. for 30 minutes to provide a skimmed milk culture medium (additive-free culture medium). In addition, a skimmed milk culture medium (simultaneous heating culture medium) was prepared in anaerobic conditions by adding an L-cystine (manufactured by Kyowa Hakko Bio Co., Ltd.) aqueous suspension or an L-cysteine hydrochloride (manufactured by Nichiri Kagaku Co., Ltd.) aqueous solution to a skimmed milk culture medium at a final concentration of 0.05 (w/v) % and performing heat sterilization after the addition of the suspension or the solution, and a skimmed milk culture medium (individual heating culture medium) was prepared in anaerobic conditions by adding the suspension or the solution to a skimmed milk culture medium at a final concentration of 0.05 (w/v) % after heat sterilization and immediately before inoculation. Here, the L-cystine aqueous suspension and the L-cysteine hydrochloride aqueous solution were prepared as a 5% (w/v) aqueous suspension and a 5% (w/v) aqueous solution, respectively, and were added to each culture medium at an amount of 1% (v/v). In order to unify the changes in the concentration and the changes in the redox potential of samples due to the addition of the solution, 1% (v/v) of sterilized water was added to the simultaneous heating culture medium immediately before inoculation, to the individual heating culture medium before heating, and to the additive-free culture medium before heating and immediately before inoculation, i.e., twice.
When bacteria were inoculated, inoculation was performed while replacing the headspace of the container with nitrogen gas, and the nitrogen gas was sealed with a butyl rubber stopper, followed by culture. The culture was performed in a thermostat water bath set to 37° C. for 12 hours.
The pH of a culture medium or a bacterial solution was measured using a desk-top pH meter (F52, manufactured by HORIBA, Ltd.).
The amount of a 0.1 N sodium hydroxide aqueous solution for 9.0 g of a bacterial solution required to reach a pH of 8.5 was defined as acidity. The measurement was performed using an automatic titrator (manufactured by HIRANUMA Co., Ltd.).
Regardless of the bacterial strain, a bacterial solution was appropriately diluted with a 0.85% (w/v) sodium chloride aqueous solution (physiological saline solution). The diluted bacterial solution was inoculated with a spiral plater EDDY JET (manufactured by IUL Instruments GmbH) on a plate culture medium of TOS propionate agar medium (manufactured by Yakult Pharmaceutical Industry Co., Ltd.) in the case of bacteria of the genus Bifidobacterium and a plate culture medium of BCP Added Plate Count medium (manufactured by EIKEN CHEMICAL CO., LTD.) in the case of bacteria of the genus Lactobacillus, followed by culture at 37° C. for 48 to 72 hours. The grown colonies were counted as the viable cell count. The bacteria of the genus Lactobacillus were cultured in aerobic conditions, and the bacteria of the genus Bifidobacterium were cultured in anaerobic conditions (Anaero Pack, manufactured by MITSUBISHI GAS CHEMICAL COMPANY, INC.). Colonies were counted using a colony counter ProtoCOL (manufactured by Synoptics Ltd.).
As in Example 1, each simultaneous heating culture medium of milk and L-cystine or L-cysteine was prepared. […]

[3] = whey separated after heating, L-cysteine, individual heating, culture time 9 h
[4] = whey separated after heating, L-cysteine, individual heating, culture time 12 h
[5] = whey separated after heating, L-cysteine, simultaneous heating, culture time 9 h
[6] = whey separated after heating, L-cysteine, simultaneous heating, culture time 12 h
[7] = whey separated before heating, L-cysteine 0.03 (w/v) %, individual heating, culture time 9 h
[8] = whey separated before heating, L-cysteine 0.03 (w/v) %, individual heating, culture time 12 h
[9] = whey separated before heating, L-cysteine 0.03 (w/v) %, simultaneous heating, culture time 9 h
[10] = whey separated before heating, L-cysteine 0.03 (w/v) %, simultaneous heating, culture time 12 h
[11] = BF-1, skimmed milk, 0.05 (w/v) %, cultured 12 hours

With `Cl.N[C@@H](CS)C(=O)O` [L-cysteine, L-cysteine hydrochloride] the Acidity [1, 3] was 3.43 ml/9 g, the Viable cell count [1, 3] was 8.89 × 10^8 CFU/ml and the pH [1, 3] was 5.14. The Acidity [1, 4] was 4.78 ml/9 g, the Viable cell count [1, 4] was 1.32 × 10^9 CFU/ml and the pH [1, 4] was 4.81. For the same compound, the Acidity [1, 5] was 4.23 ml/9 g, the Viable cell count [1, 5] was 1.29 × 10^9 CFU/ml and the pH [1, 5] was 4.85. For the same compound, the Acidity [1, 6] was 7.28 ml/9 g, the Viable cell count [1, 6] was 2.22 × 10^9 CFU/ml and the pH [1, 6] was 4.32. For the same compound, the “Viable cell count ratio (simultaneous/individual)” value ([1]; whey separated after heating, culture time 9 h) was 1.45, the “Viable cell count ratio (simultaneous/individual)” value ([1]; whey separated after heating, culture time 12 h) was 1.68 and the Acidity [1, 7] was 2.15 ml/9 g. For the same compound, the Viable cell count [1, 7] was 1.24 × 10^8 CFU/ml, the pH [1, 7] was 4.97 and the Acidity [1, 8] was 2.55 ml/9 g. The Viable cell count [1, 8] was 1.42 × 10^8 CFU/ml, the pH [1, 8] was 4.82 and the Acidity [1, 9] was 2.15 ml/9 g. For the same compound, the Viable cell count [1, 9] was 2.53 × 10^8 CFU/ml, the pH [1, 9] was 5.01 and the Acidity [1, 10] was 2.29 ml/9 g. For the same compound, the Viable cell count [1, 10] was 3.29 × 10^8 CFU/ml, the pH [1, 10] was 4.85 and the “Viable cell count ratio (simultaneous/individual)” value ([1]; whey separated before heating, culture time 9 h) was 2.04. For the same compound, the “Viable cell count ratio (simultaneous/individual)” value ([1]; whey separated before heating, culture time 12 h) was 2.31, the “concentration at which the viable cell count was maximum” value (“concentration” for short) [1] was 0.01 % (w/v) and the “viable cell count and acidity versus culture medium not containing L-cystine and L-cysteine” value [2] was “increased”. For the same compound, the “concentration” value [2] was 0.05 % (w/v).
With `N[C@@H](CSSC[C@H](N)C(=O)O)C(=O)O` [L-cystine] the “concentration” value [1] was 0.01 % (w/v), the “viable cell count and acidity versus culture medium not containing L-cystine and L-cysteine” value [2] was “increased” and the “concentration” value [2] was 0.1 % (w/v). The “acidity higher with simultaneous heating than individual heating” value [2, 11] was 1.3 times and the “viable cell count higher with simultaneous heating than individual heating” value [2, 11] was 4.5 times.
